This is an account of results in publication PMC10688034 (ACS Omega, 2023).

Data set [1] concerns SARS-CoV-2. In kind it is cell-based. The note with it: Calu-3, independently of the time of administration.
Data set [2] relates to Calu-3 cells. As to conditions: MTT.
The nature of data set [3]: in vitro. The note with it: African green monkey.
In data set [4] the test system is SARS-CoV-2. In kind it is cell-based.
For data set [5] the following is noted: cited from earlier work.
In data set [6] the test system is Vero E6 cells. The note with it: MTT, within the concentration range tested (1-80 μM).

As for `C[C@H]1[C@@H](O)O[C@@H]2O[C@@]3(C)CC[C@H]4[C@H](C)CC[C@@H]1[C@@]24OO3` [DHA, dihydroartemisinin], the “effect on viral replication (in words)” value in data set [1] is given as “slightly interfere with viral replication”. Further, in data set [2] (concentration up to 20 μM), the “cytotoxicity (in words)” value is recorded as “noncytotoxic”. Moreover, in data set [2] (concentrations above 20 μM), the “cell viability at the higher concentrations tested (in words)” value was “slightly altering cell viability”. Besides, in data set [3], the IC50 was determined as 21.6 µM. For the same compound, the “LR (reduction of viral load)” value in data set [4] is less than 1 log. Besides, the “decomposition in cell culture medium after 6 h” value in data set [5] is reported as “up to 70%”.

With `C[C@H](CCC(=O)O)[C@H]1CC[C@H]2[C@@H]3[C@@H](O)C[C@@H]4C[C@H](O)CC[C@]4(C)[C@H]3CC[C@]12C` [UDCA, ursodeoxycholic acid], the “cytotoxicity (in words)” value in data set [6] is given as “noncytotoxic”. Moreover, the “LR (reduction of viral load)” value in data set [4] was less than 1 log.

The term IC50 denotes the concentration that inhibits the measured activity by half.
